Patent US7514448B2, “Azaindoles useful as inhibitors of rock and other protein kinases” (Vertex Pharmaceuticals Incorporated, priority 2004, dated 2009)

Tests used:
Format in all cases: biochemical
ROCK I (AA 6-553) = ROCK I (AA 6-553) (Homo sapiens, UniProt Q13464); test: ROCK inhibition assay, coupled enzyme system ("Enzyme"); details: enzyme-linked assay; average Ki if more than one determined
Procedure: Reactions were carried out in a solution containing 100 mM HEPES (pH 7.5), 10 mM MgCl2, 25 mM NaCl, 2 mM DTT and 1.5% DMSO.
(§1) If more than one value of Ki has been determined, the average Ki is indicated. If no value is indicated, then the Ki was not determined.

PKA = PKA (Homo sapiens, UniProt P17612); test: PKA inhibition assay, coupled enzyme; details: average Ki if more than one determined
Procedure, shortened: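 Coupled PK/LDH assay following NADH depletion: 18 nM PKA, 50 μM ATP, 80 μM Kemptide in 100 mM HEPES pH 7.5, 10 mM MgCl2, 25 mM NaCl, 1 mM DTT, 3% DMSO, at 30 °C. Compound preincubated 10 min before ATP start; initial rates over 15 min, IC50 and Ki by non-linear regression.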

ROCK = ROCK (Homo sapiens, UniProt Q13464); test: ROCK radioactive assay ("33P"); details: radioactive assay; average Ki if more than one determined; read-out: ROCK 33P Ki
Chain of ROCK (Q13464 whole entry): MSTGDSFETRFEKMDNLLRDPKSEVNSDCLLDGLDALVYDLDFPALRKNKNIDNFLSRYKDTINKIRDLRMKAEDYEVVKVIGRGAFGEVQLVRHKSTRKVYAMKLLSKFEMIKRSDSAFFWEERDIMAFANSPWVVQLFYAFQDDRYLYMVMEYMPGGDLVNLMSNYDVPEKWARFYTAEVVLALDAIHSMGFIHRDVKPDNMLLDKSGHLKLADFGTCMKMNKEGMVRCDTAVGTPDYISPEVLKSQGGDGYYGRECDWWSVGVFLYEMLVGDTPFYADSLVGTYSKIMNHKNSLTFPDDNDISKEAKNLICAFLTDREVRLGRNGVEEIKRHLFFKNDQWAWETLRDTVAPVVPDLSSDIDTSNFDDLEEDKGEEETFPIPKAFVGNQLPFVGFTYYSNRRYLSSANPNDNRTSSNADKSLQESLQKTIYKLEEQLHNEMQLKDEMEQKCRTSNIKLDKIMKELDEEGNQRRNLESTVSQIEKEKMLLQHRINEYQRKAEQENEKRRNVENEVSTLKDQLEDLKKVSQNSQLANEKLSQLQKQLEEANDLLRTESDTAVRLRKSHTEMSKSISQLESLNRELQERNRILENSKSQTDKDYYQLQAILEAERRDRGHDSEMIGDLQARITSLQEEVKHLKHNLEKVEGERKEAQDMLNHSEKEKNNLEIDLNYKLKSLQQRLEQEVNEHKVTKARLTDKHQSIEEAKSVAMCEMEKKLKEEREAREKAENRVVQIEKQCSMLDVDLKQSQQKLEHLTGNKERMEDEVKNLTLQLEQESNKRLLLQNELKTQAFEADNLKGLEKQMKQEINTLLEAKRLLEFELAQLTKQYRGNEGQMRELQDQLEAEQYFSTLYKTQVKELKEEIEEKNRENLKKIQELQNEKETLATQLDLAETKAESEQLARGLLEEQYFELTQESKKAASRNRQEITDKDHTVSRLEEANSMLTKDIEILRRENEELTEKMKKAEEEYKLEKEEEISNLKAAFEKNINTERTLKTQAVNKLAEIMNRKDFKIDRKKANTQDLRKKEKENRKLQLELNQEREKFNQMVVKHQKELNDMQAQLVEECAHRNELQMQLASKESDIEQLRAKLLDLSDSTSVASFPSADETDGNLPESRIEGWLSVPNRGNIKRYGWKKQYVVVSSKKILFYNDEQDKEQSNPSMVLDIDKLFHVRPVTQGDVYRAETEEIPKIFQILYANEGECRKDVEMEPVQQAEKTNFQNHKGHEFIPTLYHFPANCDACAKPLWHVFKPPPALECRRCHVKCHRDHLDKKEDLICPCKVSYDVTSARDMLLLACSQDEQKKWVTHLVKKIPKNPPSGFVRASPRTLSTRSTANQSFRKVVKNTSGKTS
Source text: as §1

Chain of ROCK I (AA 6-553) (Q13464 6-553, species assumed): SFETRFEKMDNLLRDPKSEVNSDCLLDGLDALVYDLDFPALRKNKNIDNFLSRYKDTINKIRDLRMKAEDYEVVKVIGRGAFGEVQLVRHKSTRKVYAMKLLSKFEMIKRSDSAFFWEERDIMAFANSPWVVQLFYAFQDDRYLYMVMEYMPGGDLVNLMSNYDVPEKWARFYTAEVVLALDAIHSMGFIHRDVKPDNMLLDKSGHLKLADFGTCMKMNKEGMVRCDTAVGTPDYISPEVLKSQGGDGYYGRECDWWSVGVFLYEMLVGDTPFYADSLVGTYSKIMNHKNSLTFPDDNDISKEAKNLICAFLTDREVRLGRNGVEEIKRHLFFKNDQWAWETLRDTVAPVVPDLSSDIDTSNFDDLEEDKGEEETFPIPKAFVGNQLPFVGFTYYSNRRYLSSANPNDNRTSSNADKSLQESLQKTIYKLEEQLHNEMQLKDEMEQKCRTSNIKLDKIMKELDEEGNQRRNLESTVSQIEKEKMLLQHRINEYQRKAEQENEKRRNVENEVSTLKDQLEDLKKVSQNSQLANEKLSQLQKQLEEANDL

Ki (ROCK I (AA 6-553)) [nM] | Ki (PKA) [nM] | Ki (ROCK) [nM] | SMILES
< 500 | < 500 | – | O=C(Cc1cccc(S(=O)(=O)N[C@H]2CCOC2)c1)Nc1nc(-c2c[nH]c3ncccc23)cs1 [II-42]
< 500 | < 500 | – | O=C(Cc1ccccc1F)N(c1nc(-c2c[nH]c3ncccc23)cs1)C1CC1 [II-44]
< 500 | < 500 | – | CC(C)S(=O)(=O)Nc1ccc(CC(=O)Nc2nc(-c3c[nH]c4ncccc34)cs2)c(Cl)c1 [II-48]
< 500 | < 500 | – | COc1cccc(CC(=O)Nc2csc(-c3c[nH]c4ncccc34)n2)c1 [II-55]
< 500 | < 500 | – | O=C(Cc1ccc(F)cc1F)Nc1csc(-c2c[nH]c3ncccc23)n1 [II-56]
< 500 | 500 to 5000 | – | O=C(Cc1cccc(S(=O)(=O)N2CCOCC2)c1)Nc1csc(-c2c[nH]c3ncccc23)n1 [II-57]
500 to 5000 | 500 to 5000 | – | O=C(Cc1cccc(S(=O)(=O)N2CCOCC2)c1)Nc1nnc(-c2c[nH]c3ncccc23)s1 [II-58]
< 500 | < 500 | – | O=C(NCc1cccc(S(=O)(=O)N2CCOCC2)c1)c1ccc(-c2c[nH]c3ncccc23)s1 [II-65]
< 500 | 500 to 5000 | – | CCN(CC)S(=O)(=O)c1cccc(CC(=O)Nc2nc(-c3c[nH]c4nccc(F)c34)cs2)c1 [II-67]
< 500 | < 500 | – | COc1cccc(CC(=O)N(c2nc(-c3c[nH]c4ncccc34)cs2)C2CC2)c1 [II-70]
< 500 | < 500 | – | COc1cccc(CNC(=O)c2cc(-c3c[nH]c4ncccc34)cs2)c1 [II-71]
< 500 | 500 to 5000 | – | CS(=O)(=O)c1ccc(CC(=O)N(c2nc(-c3c[nH]c4ncccc34)cs2)C2CC2)cc1 [II-73]
< 500 | < 500 | – | COc1ccc(CC(=O)N(c2nc(-c3c[nH]c4ncccc34)cs2)C2CC2)c(Cl)c1 [II-75]
< 500 | 500 to 5000 | – | O=C(Cc1cccc(OCCCC2CCNCC2)c1)N(c1nc(-c2c[nH]c3ncccc23)cs1)C1CC1 [II-76]
< 500 | 500 to 5000 | – | COc1cccc(CC(=O)Nc2nc(-c3c[nH]c4ncc(Br)cc34)cs2)c1 [II-77]
< 500 | 500 to 5000 | – | O=C(NCc1cccc(S(=O)(=O)N2CCOCC2)c1)c1cc(-c2c[nH]c3ncccc23)cs1 [II-80]

Ki (ROCK I (AA 6-553)) [nM] | Ki (PKA) [nM] | Ki (ROCK) [nM] | SMILES
< 500 | 500 to 5000 | – | O=C(Cc1cccc(OCCCN2CCNCC2)c1)N(c1nc(-c2c[nH]c3ncccc23)cs1)C1CC1 [II-83]
< 500 | 500 to 5000 | – | CN1CCN(CCCOc2cccc(CC(=O)N(c3nc(-c4c[nH]c5ncccc45)cs3)C3CC3)c2)CC1 [II-84]
< 500 | < 500 | – | O=C(Cc1cccc(OCCN2CCNCC2)c1)N(c1nc(-c2c[nH]c3ncccc23)cs1)C1CC1 [II-85]
< 500 | 500 to 5000 | – | CN1CCN(CCOc2cccc(CC(=O)N(c3nc(-c4c[nH]c5ncccc45)cs3)C3CC3)c2)CC1 [II-86]
< 500 | < 500 | – | O=C(Cc1cccc(S(=O)(=O)N2CCOCC2)c1)N(c1nc(-c2c[nH]c3ncccc23)cs1)C1CC1 [II-87]
< 500 | < 500 | – | O=C(Cc1cc2c(cc1Cl)OCO2)N(c1nc(-c2c[nH]c3ncccc23)cs1)C1CC1 [II-88]
< 500 | < 500 | – | CN(C)CCN(C)S(=O)(=O)c1cccc(CC(=O)Nc2nc(-c3c[nH]c4ncccc34)cs2)c1 [II-90]
< 500 | < 500 | – | O=C(Cc1ccccc1)Nc1nc(-c2c[nH]c3nccc(Cl)c23)cs1 [II-91]
< 500 | < 500 | – | O=C(Cc1cccc(OCCCC2CCNCC2)c1)Nc1nc(-c2c[nH]c3nccc(Cl)c23)cs1 [II-95]
< 500 | < 500 | – | CN(C)CCNS(=O)(=O)c1cccc(CC(=O)Nc2nc(-c3c[nH]c4ncccc34)cs2)c1 [II-97]
< 500 | 500 to 5000 | – | Cc1sc(NC(=O)Cc2ccccc2)nc1-c1c[nH]c2ncccc12 [II-98]
< 500 | 500 to 5000 | – | O=C(Cc1cccc(S(=O)(=O)N2CCOCC2)c1)Nc1nc(-c2c[nH]c3ncc(Cl)cc23)cs1 [II-105]
< 500 | < 500 | – | CS(=O)(=O)Nc1cccc(CNC(=O)c2cc(-c3c[nH]c4ncccc34)cs2)c1 [II-106]
< 500 | 500 to 5000 | – | O=C(Cc1cccc(S(=O)(=O)N2CCOCC2)c1)Nc1nc(-c2c[nH]c3ncc(Br)cc23)cs1 [II-107]
< 500 | < 500 | – | CN(c1cccc(CC(=O)Nc2nc(-c3c[nH]c4ncccc34)cs2)c1)S(C)(=O)=O [II-113]

More lines, now with the values behind:

SMILES | Ki (ROCK I (AA 6-553)) [nM] | Ki (PKA) [nM] | Ki (ROCK) [nM]
NC(=O)c1cccc(CC(=O)Nc2nc(-c3c[nH]c4ncccc34)cs2)c1 [II-41] | < 500 | < 500 | –
CC(=O)N1[C@H](C)CN(c2nc(-c3c[nH]c4ncc(Cl)cc34)cs2)C[C@@H]1C [II-43] | 500 to 5000 | 500 to 5000 | –
O=C(Cc1ccc(F)cc1F)N(c1nc(-c2c[nH]c3ncccc23)cs1)C1CC1 [II-45] | < 500 | < 500 | –
CS(=O)(=O)Nc1cccc(CC(=O)Nc2csc(-c3c[nH]c4ncccc34)n2)c1 [II-46] | < 500 | < 500 | –
CS(=O)(=O)Nc1ccc(CC(=O)Nc2nc(-c3c[nH]c4ncccc34)cs2)c(Cl)c1 [II-47] | < 500 | < 500 | –
CN1CCN(S(=O)(=O)c2cccc(CC(=O)Nc3nc(-c4c[nH]c5ncccc45)cs3)c2)CC1 [II-51] | < 500 | < 500 | < 500
CN1CCCN(S(=O)(=O)c2cccc(CC(=O)Nc3nc(-c4c[nH]c5ncccc45)cs3)c2)CC1 [II-52] | < 500 | < 500 | –
O=C(Cc1cccc(S(=O)(=O)N2CCOCC2)c1)Nc1cc(-c2c[nH]c3ncccc23)cs1 [II-59] | < 500 | < 500 | –
O=C(Cc1ccccc1F)Nc1csc(-c2c[nH]c3ncccc23)n1 [II-60] | < 500 | < 500 | –
O=C(Cc1ccc(F)cc1)Nc1csc(-c2c[nH]c3ncccc23)n1 [II-61] | < 500 | < 500 | –
O=C(Cc1ccccc1)Nc1csc(-c2c[nH]c3ncccc23)n1 [II-62] | < 500 | < 500 | –
CCN(CC)S(=O)(=O)c1cccc(CC(=O)Nc2csc(-c3c[nH]c4ncccc34)n2)c1 [II-63] | < 500 | 500 to 5000 | –
CCN(CC)S(=O)(=O)c1cccc(CC(=O)Nc2nnc(-c3c[nH]c4ncccc34)s2)c1 [II-64] | 500 to 5000 | 500 to 5000 | –
O=C(Cc1cccc(S(=O)(=O)N2CCOCC2)c1)Nc1nc(-c2c[nH]c3nccc(F)c23)cs1 [II-66] | < 500 | 500 to 5000 | –
O=C(Cc1cccc(O)c1)N(c1nc(-c2c[nH]c3ncccc23)cs1)C1CC1 [II-68] | < 500 | < 500 | –
O=C(Cc1ccc2c(c1)OCO2)N(c1nc(-c2c[nH]c3ncccc23)cs1)C1CC1 [II-69] | < 500 | < 500 | –
O=C(Cc1cccc(S(=O)(=O)NCC2CCCO2)c1)Nc1nc(-c2c[nH]c3ncccc23)cs1 (stereo not drawn) [II-72] | < 500 | < 500 | –

SMILES | Ki (ROCK I (AA 6-553)) [nM] | Ki (PKA) [nM] | Ki (ROCK) [nM]
CS(=O)(=O)c1ccc(CC(=O)Nc2nc(-c3c[nH]c4ncccc34)cs2)cc1 [II-74] | < 500 | 500 to 5000 | –
CS(=O)(=O)Nc1cccc(CC(=O)Nc2nc(-c3c[nH]c4ncc(Br)cc34)cs2)c1 [II-78] | < 500 | 500 to 5000 | –
O=C(Nc1csc(-c2c[nH]c3ncccc23)n1)c1ccccc1 [II-81] | < 500 | 500 to 5000 | –
CS(=O)(=O)Nc1ccc(F)c(CC(=O)Nc2nc(-c3c[nH]c4ncccc34)cs2)c1 [II-82] | < 500 | < 500 | –
CC(C)N1CCN(S(=O)(=O)c2cccc(CC(=O)Nc3nc(-c4c[nH]c5ncccc45)cs3)c2)CC1 [II-89] | < 500 | 500 to 5000 | –
COc1cccc(CC(=O)Nc2nc(-c3c[nH]c4nccc(Cl)c34)cs2)c1 [II-92] | < 500 | < 500 | –
CCN(CC)S(=O)(=O)c1cccc(CC(=O)Nc2nc(-c3c[nH]c4nccc(Cl)c34)cs2)c1 [II-93] | 500 to 5000 | 500 to 5000 | –
CS(=O)(=O)Nc1cccc(CC(=O)Nc2nc(-c3c[nH]c4nccc(Cl)c34)cs2)c1 [II-94] | < 500 | < 500 | –
COc1cccc(C2CCCN(c3nc(-c4c[nH]c5ncccc45)cs3)C2=O)c1 (stereo not drawn) [II-96] | < 500 | < 500 | –
COc1cccc(CC(=O)Nc2nc(-c3c[nH]c4ncccc34)c(C)s2)c1 [II-99] | < 500 | 500 to 5000 | –
Cc1sc(NC(=O)Cc2cccc(NS(C)(=O)=O)c2)nc1-c1c[nH]c2ncccc12 [II-100] | < 500 | 500 to 5000 | –
Cc1sc(NC(=O)Cc2cccc(S(=O)(=O)N3CCOCC3)c2)nc1-c1c[nH]c2ncccc12 [II-101] | 500 to 5000 | 500 to 5000 | –
O=C(Cc1ccccc1)Nc1nc(-c2c[nH]c3ncc(Cl)cc23)cs1 [II-102] | < 500 | < 500 | –
COc1cccc(CC(=O)Nc2nc(-c3c[nH]c4ncc(Cl)cc34)cs2)c1 [II-103] | < 500 | < 500 | –
CS(=O)(=O)Nc1cccc(CC(=O)Nc2nc(-c3c[nH]c4ncc(Cl)cc34)cs2)c1 [II-104] | < 500 | 500 to 5000 | –
O=C(Cc1ccc(OCCN2CCNCC2)cc1Cl)Nc1nc(-c2c[nH]c3ncccc23)cs1 [II-108] | < 500 | 500 to 5000 | < 500
O=C(Cc1cccc(S(=O)(=O)N2CCCCC2)c1)Nc1nc(-c2c[nH]c3ncccc23)cs1 [II-112] | < 500 | 500 to 5000 | –
